# Data as given in ChEMBL document CHEMBL3132769, “Fragment growing to retain or alter the selectivity of anchored kinase hinge-binding fragments” (Medchemcomm, 2014).
# Tests used:
# [1] = target: Tyrosine-protein kinase Fer (Homo sapiens) (UniProt P16591); assay: Inhibition of human FER catalytic domain expressed in baculovirus assessed as substrate phosphorylation using fluorescence-labelled peptides as substrate at 95 uM after 90 mins by microfluidic peptide phosphorylation assay
# [2] = target: Glycogen synthase kinase-3 beta (Homo sapiens) (UniProt P49841); assay: Inhibition of human full length GSK-3 beta expressed in baculovirus assessed as substrate phosphorylation using fluorescence-labelled peptides as substrate at 0.2 uM after 90 mins by microfluidic peptide phosphorylation assay
# Glycogen synthase kinase-3 beta (Homo sapiens), sequence (P49841 whole entry, looked up, the tested form may be a part): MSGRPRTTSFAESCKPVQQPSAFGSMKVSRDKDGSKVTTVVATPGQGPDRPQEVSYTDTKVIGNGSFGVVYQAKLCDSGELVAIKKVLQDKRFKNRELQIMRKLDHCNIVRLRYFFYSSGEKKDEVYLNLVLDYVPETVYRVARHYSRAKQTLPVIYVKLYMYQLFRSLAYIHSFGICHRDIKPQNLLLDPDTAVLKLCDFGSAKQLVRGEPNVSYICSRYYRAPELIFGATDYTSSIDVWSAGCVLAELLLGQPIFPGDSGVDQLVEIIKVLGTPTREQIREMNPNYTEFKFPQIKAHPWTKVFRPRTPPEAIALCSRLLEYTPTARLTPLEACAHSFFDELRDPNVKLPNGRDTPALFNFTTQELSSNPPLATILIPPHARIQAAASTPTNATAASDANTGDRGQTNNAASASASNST
# [3] = target: Protein kinase C gamma type (Homo sapiens) (UniProt P05129); assay: Inhibition of human truncated PKC gamma expressed in baculovirus assessed as substrate phosphorylation using fluorescence-labelled peptides as substrate at 2 uM after 90 mins by microfluidic peptide phosphorylation assay
# [4] = target: Protein kinase C beta type (Homo sapiens) (UniProt P05771); assay: Inhibition of human full length PKC beta2 expressed in baculovirus assessed as substrate phosphorylation using fluorescence-labelled peptides as substrate at 2 uM after 90 mins by microfluidic peptide phosphorylation assay
# [5] = target: Protein kinase C gamma type (Homo sapiens) (UniProt P05129); assay: Inhibition of human truncated PKC gamma expressed in baculovirus assessed as substrate phosphorylation using fluorescence-labelled peptides as substrate at 0.06 uM after 90 mins by microfluidic peptide phosphorylation assay
# [6] = target: Mitogen-activated protein kinase kinase kinase kinase 4 (Homo sapiens) (UniProt O95819); conditions: 0.1 uM
# Mitogen-activated protein kinase kinase kinase kinase 4 (Homo sapiens), sequence (O95819 2-1239 limits assumed): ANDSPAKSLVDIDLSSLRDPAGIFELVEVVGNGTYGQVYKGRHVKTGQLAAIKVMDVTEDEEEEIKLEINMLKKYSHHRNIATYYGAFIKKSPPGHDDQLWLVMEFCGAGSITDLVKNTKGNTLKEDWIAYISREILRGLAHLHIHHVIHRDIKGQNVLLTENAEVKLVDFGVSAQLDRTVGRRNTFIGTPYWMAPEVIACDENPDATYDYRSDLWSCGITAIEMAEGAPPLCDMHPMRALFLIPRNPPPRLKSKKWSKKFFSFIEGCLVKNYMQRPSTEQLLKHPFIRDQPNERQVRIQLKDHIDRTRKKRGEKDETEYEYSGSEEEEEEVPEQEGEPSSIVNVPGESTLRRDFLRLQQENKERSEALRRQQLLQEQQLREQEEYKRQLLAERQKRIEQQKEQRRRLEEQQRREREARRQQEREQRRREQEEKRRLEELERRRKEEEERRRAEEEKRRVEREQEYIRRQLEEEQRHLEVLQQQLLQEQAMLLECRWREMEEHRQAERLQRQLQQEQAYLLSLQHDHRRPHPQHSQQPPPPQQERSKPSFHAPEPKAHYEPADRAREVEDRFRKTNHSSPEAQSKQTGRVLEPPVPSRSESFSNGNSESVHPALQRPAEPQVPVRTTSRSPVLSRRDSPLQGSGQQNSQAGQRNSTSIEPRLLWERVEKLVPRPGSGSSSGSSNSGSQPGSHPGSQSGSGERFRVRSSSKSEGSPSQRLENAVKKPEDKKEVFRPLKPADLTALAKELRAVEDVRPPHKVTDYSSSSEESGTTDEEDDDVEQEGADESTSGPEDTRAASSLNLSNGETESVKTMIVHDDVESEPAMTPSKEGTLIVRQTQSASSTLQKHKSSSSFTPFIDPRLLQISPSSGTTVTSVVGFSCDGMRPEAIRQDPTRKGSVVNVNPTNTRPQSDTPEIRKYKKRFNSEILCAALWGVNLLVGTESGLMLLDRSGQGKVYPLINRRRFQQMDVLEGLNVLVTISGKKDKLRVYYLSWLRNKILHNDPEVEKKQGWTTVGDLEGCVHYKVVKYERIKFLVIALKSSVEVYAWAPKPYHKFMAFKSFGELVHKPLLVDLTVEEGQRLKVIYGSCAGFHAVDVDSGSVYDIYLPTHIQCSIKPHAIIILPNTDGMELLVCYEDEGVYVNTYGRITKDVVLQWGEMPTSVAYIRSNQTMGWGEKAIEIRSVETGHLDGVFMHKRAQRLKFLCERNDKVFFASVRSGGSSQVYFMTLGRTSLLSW
# Description: Inhibition of human HGK catalytic domain expressed in baculovirus assessed as substrate phosphorylation using fluorescence-labelled peptides as substrate at 0.1 uM after 90 mins by microfluidic peptide phosphorylation assay
# [7] = target: Fibroblast growth factor receptor 4 (Homo sapiens) (UniProt P22455); conditions: 0.1 uM
# Description: Inhibition of human FGFR4 catalytic domain expressed in baculovirus assessed as substrate phosphorylation using fluorescence-labelled peptides as substrate at 0.1 uM after 90 mins by microfluidic peptide phosphorylation assay
# [8] = target: Mitogen-activated protein kinase kinase kinase kinase 4 (Homo sapiens) (UniProt O95819); assay: Inhibition of human HGK catalytic domain expressed in baculovirus assessed as substrate phosphorylation using fluorescence-labelled peptides as substrate at […] after 90 mins by microfluidic peptide phosphorylation assay
# [9] = target: Serine/threonine-protein kinase pim-1 (Homo sapiens) (UniProt P11309); assay: Inhibition of human full length PIM1 expressed in baculovirus assessed as substrate phosphorylation using fluorescence-labelled peptides as substrate at […] after 90 mins by microfluidic peptide phosphorylation assay
# Serine/threonine-protein kinase pim-1 (Homo sapiens), sequence (P11309 whole entry, looked up): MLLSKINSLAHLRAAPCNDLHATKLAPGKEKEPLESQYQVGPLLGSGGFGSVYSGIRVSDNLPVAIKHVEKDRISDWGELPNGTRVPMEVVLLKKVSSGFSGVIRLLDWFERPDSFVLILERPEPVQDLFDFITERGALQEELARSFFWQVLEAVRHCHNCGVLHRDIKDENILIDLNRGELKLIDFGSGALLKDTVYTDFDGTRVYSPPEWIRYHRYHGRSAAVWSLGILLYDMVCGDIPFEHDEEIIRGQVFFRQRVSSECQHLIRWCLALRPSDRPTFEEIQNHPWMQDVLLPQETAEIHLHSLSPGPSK
# [10] = target: Ribosomal protein S6 kinase alpha-5 (Homo sapiens) (UniProt O75582); assay: Inhibition of human full length MSK1 expressed in baculovirus assessed as substrate phosphorylation using fluorescence-labelled peptides as substrate at 420 uM after 90 mins by microfluidic peptide phosphorylation assay
# [11] = target: MAP kinase p38 (Homo sapiens) (UniProt O15264+Q15759+Q16539+P53778); assay: Inhibition of human full length p38 beta2 expressed in Escherichia coli cell assessed as substrate phosphorylation using fluorescence-labelled peptides as substrate at 9 uM after 90 mins by microfluidic peptide phosphorylation assay
# [12] = target: Tyrosine-protein kinase ABL2 (Homo sapiens) (UniProt P42684); assay: Inhibition of human truncated Arg expressed in baculovirus assessed as substrate phosphorylation using fluorescence-labelled peptides as substrate at 9 uM after 90 mins by microfluidic peptide phosphorylation assay
# [13] = target: Serine/threonine-protein kinase PAK 2 (Homo sapiens) (UniProt Q13177); assay: Inhibition of human truncated PAK2 expressed in Escherichia coli cell assessed as substrate phosphorylation using fluorescence-labelled peptides as substrate at 70 uM after 90 mins by microfluidic peptide phosphorylation assay
# Serine/threonine-protein kinase PAK 2 (Homo sapiens), sequence (Q13177 whole entry, the tested form may be a part): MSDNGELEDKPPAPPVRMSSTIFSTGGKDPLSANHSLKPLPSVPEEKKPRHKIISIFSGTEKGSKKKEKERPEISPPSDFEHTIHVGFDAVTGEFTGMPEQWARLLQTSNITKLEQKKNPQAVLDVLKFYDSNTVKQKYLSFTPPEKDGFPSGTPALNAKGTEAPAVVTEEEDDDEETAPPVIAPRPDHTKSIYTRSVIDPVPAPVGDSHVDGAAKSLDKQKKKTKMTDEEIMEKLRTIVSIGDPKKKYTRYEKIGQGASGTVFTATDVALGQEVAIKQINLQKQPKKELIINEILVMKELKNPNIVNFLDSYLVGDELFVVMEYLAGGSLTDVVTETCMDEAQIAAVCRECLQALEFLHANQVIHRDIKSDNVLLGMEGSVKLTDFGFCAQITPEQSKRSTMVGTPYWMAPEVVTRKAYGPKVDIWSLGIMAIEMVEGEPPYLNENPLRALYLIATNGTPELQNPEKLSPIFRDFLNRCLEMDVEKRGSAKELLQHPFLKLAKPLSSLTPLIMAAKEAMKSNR
# [14] = tested on: T1, Receptor-type tyrosine-protein kinase FLT3 (Homo sapiens), P36888 [D835Y]; assay: Inhibition of human FLT3 D835Y mutant catalytic domain expressed in baculovirus assessed as substrate phosphorylation using fluorescence-labelled peptides as substrate at 70 uM after 90 mins by microfluidic peptide phosphorylation assay
# T1 sequence (whole entry): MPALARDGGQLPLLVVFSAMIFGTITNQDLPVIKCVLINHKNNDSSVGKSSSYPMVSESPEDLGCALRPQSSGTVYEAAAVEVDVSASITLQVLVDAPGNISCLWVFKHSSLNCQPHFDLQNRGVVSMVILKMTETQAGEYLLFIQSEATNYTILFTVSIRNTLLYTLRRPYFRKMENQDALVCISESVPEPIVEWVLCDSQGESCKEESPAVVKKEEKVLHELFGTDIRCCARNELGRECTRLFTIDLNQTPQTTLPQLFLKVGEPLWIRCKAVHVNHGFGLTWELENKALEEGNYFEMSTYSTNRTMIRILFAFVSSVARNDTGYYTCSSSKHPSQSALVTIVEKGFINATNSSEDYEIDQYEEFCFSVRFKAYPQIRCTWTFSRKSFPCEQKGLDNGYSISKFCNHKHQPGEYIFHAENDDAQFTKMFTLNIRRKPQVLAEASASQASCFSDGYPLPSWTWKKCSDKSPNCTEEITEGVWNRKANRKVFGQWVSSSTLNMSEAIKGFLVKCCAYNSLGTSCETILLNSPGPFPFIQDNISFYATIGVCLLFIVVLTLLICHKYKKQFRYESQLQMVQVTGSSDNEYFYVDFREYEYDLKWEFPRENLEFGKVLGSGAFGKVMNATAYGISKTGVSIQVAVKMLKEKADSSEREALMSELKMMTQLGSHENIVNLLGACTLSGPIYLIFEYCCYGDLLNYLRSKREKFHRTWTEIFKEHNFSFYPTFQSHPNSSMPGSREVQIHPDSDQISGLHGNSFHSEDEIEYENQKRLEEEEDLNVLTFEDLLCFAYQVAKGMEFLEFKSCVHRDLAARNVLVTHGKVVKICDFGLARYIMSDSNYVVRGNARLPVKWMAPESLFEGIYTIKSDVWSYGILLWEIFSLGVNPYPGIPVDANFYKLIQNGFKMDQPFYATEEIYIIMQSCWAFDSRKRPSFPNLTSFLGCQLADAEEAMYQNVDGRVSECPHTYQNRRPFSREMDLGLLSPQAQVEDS
# [15] = target: Tyrosine-protein kinase BTK (Homo sapiens) (UniProt Q06187); assay: Inhibition of human full length BTK expressed in baculovirus assessed as substrate phosphorylation using fluorescence-labelled peptides as substrate at 70 uM after 90 mins by microfluidic peptide phosphorylation assay
# Tyrosine-protein kinase BTK (Homo sapiens), sequence (Q06187 whole entry): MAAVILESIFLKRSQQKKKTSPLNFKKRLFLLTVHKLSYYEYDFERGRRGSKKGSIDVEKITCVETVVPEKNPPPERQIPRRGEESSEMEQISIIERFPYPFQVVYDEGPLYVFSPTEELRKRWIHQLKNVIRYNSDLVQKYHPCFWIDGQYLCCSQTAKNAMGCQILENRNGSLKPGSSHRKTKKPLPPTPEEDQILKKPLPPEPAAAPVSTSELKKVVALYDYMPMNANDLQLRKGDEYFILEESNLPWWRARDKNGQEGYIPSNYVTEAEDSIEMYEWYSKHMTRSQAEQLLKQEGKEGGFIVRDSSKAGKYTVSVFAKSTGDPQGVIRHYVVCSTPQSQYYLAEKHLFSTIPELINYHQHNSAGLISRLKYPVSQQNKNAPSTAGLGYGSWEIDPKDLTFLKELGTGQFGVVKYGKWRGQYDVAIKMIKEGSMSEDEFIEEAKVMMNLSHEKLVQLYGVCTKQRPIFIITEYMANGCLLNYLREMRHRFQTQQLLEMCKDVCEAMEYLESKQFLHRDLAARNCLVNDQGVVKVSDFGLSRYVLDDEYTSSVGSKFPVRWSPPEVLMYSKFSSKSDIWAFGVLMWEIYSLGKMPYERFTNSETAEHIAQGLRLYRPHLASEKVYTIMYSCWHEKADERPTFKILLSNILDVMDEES
# [16] = target: T2, Mitogen-activated protein kinase 13 (Homo sapiens) (UniProt O15264); assay: Inhibition of human full length p38 delta expressed in Escherichia coli cell assessed as substrate phosphorylation using fluorescence-labelled peptides as substrate at 70 uM after 90 mins by microfluidic peptide phosphorylation assay
# T2 sequence (whole entry): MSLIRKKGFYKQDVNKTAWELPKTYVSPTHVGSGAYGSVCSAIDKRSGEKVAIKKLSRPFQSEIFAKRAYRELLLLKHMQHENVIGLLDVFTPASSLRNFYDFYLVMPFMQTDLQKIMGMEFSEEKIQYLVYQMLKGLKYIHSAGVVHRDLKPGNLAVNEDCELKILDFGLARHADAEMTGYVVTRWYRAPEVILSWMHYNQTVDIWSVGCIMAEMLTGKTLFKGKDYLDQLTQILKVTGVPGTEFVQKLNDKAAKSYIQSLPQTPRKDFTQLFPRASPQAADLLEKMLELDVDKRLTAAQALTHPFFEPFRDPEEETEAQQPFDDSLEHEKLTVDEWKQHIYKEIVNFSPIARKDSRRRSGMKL
# Tyrosine-protein kinase Fer (Homo sapiens), sequence (P16591 whole entry, looked up, the tested form may be a part): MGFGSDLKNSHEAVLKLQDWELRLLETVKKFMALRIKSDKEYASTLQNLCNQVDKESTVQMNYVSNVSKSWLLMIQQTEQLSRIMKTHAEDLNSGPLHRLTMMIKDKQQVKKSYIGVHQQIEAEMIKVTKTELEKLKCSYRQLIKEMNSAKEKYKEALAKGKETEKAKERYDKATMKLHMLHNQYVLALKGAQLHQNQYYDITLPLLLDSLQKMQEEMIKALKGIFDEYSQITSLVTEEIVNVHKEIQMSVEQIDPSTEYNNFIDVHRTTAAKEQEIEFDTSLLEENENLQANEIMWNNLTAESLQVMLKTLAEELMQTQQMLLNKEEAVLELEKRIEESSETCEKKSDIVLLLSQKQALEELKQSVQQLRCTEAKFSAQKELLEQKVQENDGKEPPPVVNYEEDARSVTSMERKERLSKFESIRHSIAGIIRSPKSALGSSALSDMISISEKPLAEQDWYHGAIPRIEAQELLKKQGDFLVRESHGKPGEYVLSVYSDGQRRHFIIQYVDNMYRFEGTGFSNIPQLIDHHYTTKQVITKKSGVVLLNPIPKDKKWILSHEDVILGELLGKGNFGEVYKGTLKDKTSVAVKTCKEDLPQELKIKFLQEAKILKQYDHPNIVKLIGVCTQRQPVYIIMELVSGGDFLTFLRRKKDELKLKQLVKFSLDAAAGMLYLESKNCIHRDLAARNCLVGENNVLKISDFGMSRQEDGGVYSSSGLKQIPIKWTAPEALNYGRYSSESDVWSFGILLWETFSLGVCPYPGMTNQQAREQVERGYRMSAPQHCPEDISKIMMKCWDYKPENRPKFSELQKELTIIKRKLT
compound,measurement,setting,value
NCCc1ccc(-c2ncnc3[nH]cnc23)cc1,inhibition,[1],28%
Clc1ccc(C2(c3ccc(-c4ncnc5[nH]cnc45)cc3)CCNCC2)cc1,inhibition,[2],3.5%
NC1CCN(c2ncnc3[nH]ccc23)CC1,inhibition,[3],57.5%
same,inhibition,[4],62.5%
NC1(Cc2ccc(Cl)cc2)CCN(c2ncnc3[nH]ccc23)CC1,inhibition,[5],3.5%
C[C@H](CN(C)C)Oc1nc(Nc2cc3cccc(Cl)c3cn2)cnc1C#N,inhibition,[6],0%
same,inhibition,[7],0%
COC(=O)c1cnc(Nc2cnc(C#N)cn2)cc1NCC1CCNCC1,inhibition,[8],3%
same,inhibition,[9],7%
c1nc(N2CCOCC2)c2nc[nH]c2n1,inhibition,[10],78.5%
NCC1CN(c2ncnc3[nH]c4cnccc4c23)CCO1 (stereo unspecified),inhibition,[11],0%
same,inhibition,[12],6.5%
CNCc1ccc(-c2ncnc3[nH]cnc23)cc1,inhibition,[13],26%
same,inhibition,[14],69%
same,inhibition,[15],0%
same,inhibition,[16],5%
